{"source": "patent US20250145715A1", "about": "“B7-H3 TARGETING FUSION PROTEINS AND METHODS OF USE THEREOF” (GT Biopharma, Inc., priority 2021, published 2025)", "system": "RPMI-8226 cells", "test": "IncuCyte Zoom NK cell killing of RPMI-8226", "assay_type": "cell-based, human", "details": "E:T 4:1", "excerpt": "FIGS. 8A-8D illustrate the ability of peripheral blood NK cells with or without B7-H3-TriKE to kill myeloma cells in live imaging IncuCyte Zoom assays. FIG. 8A is a graph showing the effects with effector:target (E:T) ratios of 2:1 and 4:1 on H929 cells. FIG. 8B is a graph showing the effects with effector:target (E:T) ratios of 2:1 and 4:1 on MM1S cells. FIG. 8C is a graph showing the effects with effector:target (E:T) ratios of 2:1 and 4:1 on RPMI-8226 cells. FIG. 8D is a graph showing the effects with effector:target (E:T) ratios of 2:1 and 4:1 on U266 cells.\nFIGS. 9A-9D illustrate the efficacy of B7-H3-TriKE with the proteasome inhibitor bortezomib (10 nM) and the immunomodulatory drug lenalidomide (5 μM). FIG. 9A is a graph showing the effect of the combination therapy on H929 cells after 48 hours. FIG. 9B is a graph showing the effect of the combination therapy on RPMI-8226 cells after 48 hours. FIG. 9C is a graph showing the effect of the combination therapy on MM1S cells after 48 hours. FIG. 9D is a graph showing the effect of the combination therapy on U266 cells after 48 hours.\nThe ability of peripheral blood NK cells with or without B7-H3-TriKE to kill myeloma cells was compared in live imaging IncuCyte Zoom assays with escalating doses of TriKE. Maximal killing occurred with 3 nM concentration.\nThe efficacy of B7-H3-TriKE with the proteasome inhibitor bortezomib (10 nM) and the immunomodulatory drug lenalidomide (5 μM) was also tested. Cytotoxicity curves were compared by repeated measures ANOVA and performed in triplicate.", "data": [{"substance": "B7-H3 TriKE: camelid nanobodies targeting CD16 and B7-H3 joined by IL-15 and two linkers; sequence table equates the name with cam1615B7-H3", "values": [{"measurement": "NK cell killing of RPMI-8226", "value": "enhanced killing"}]}]}
